# Assay results from patent publication US20190313638A1, “ACTIVE COMPOUND COMBINATIONS” (priority 2016, published 2019).
# Assay: Log P by HPLC on reversed phase columns (EEC directive 79/831 Annex V.A8)
# Type: physicochemical
# Method: Measurement of Log P values was performed according to EEC directive 79/831 Annex V.A8 by HPLC (High Performance Liquid Chromatography) on reversed phase columns with the following methods:
# Calibration was done with straight-chain alkan2-ones (with 3 to 16 carbon atoms) with known Log P values (measurement of Log P values using retention times with linear interpolation between successive alkanones). Lambda-max-values were determined using UV-spectra from 200 nm to 400 nm and the peak values of the chromatographic signals.
structure (smiles),measurement,setting,value
"CCN(C)/C=N/c1cc(C)c(Oc2ccccc2)cc1Br [Compound (I-4), N′-(2-bromo-5-methyl-4-phenoxyphenyl)-N-ethyl-N-methylimidoformamide]",chromatographic logP,"[a] LC-UV, acidic range, 0.1% formic acid in water and acetonitrile as eluent",4.38
same,chromatographic logP,"[b] LC-UV, neutral range, 0.001 molar ammonium acetate solution in water and acetonitrile as eluent",4.33
